The values that follow come from patent EP0077961A2, “Substituted 2-nitro-5-(4-trifluoromethyl-phenoxy) toluols, process for their preparation and their use as herbicides and plant growth regulators” (BAYER AG, priority 1981, dated 1983).

This test concerns Baumwollpflanzen. As to the kind of experiment: Defoliation and desiccation of the leaves of cotton (Beispiel A). Format: in vivo, Baumwolle. Particulars: greenhouse; cotton plants sprayed dripping wet at full unfolding of the 5th leaf; rated after 1 week against control plants; concentration not given. From the text: Entlaubung und Austrocknung der Blätter bei Baumwolle
Lösungsmittel: 30 Gewichtsteile Dimethylformamid Emulgator: 1 Gewichtsteil Polyoxyethylen-SorbitanMonolaurat
Zur Herstellung einer zweckmäßigen Wirkstoffzubereitung vermischt man 1 Gewichtsteil Wirkstoff mit den angegebenen Mengen Lösungsmittel und Emulgator und füllt mit Wasser auf die gewünschte Konzentration auf.
Baumwollpflanzen werden im Gewächshaus bis zur vollen Entfaltung des 5. Folgeblattes angezogen. In diesem Stadium werden die Pflanzen tropfnaß mit den Wirkstoffzubereitungen besprüht. Nach 1 Woche werden der Blattfall und das Austrocknen der Blätter im Vergleich zu den Kontrollpflanzen bonitiert. Es bedeuten: • 0 kein Austrocknen der Blätter, kein Blattfall • + leichtes Austrocknen der Blätter, geringer Blattfall • ++ starkes Austrocknen der Blätter, starker Blattfall • sehr starkes Austrocknen der Blätter, sehr starker Blattfall

As for `CC(=O)OCc1cc(Oc2ccc(C(F)(F)F)cc2Cl)ccc1[N+](=O)[O-]` [Beispiel 1, Essigsäure-(2-nitro-5-(2-chlor-4-trifluormethyl-phenoxy)-benzyl)-ester], the “Blattfall und Austrocknen der Blätter” value is listed as “starke Wirksamkeit”.
